# Test results as given in patent US7432376B2, “Tropane prodrugs with central nervous system activity” (Research Foundation of State University of New York, The, priority 2006, dated 2008).
# Where two headings read alike, the source gives them in different places.
# How the values were obtained:
# [1] = target: T1, dopamine transport sites (DAT) (Rattus norvegicus, UniProt P23977); assay: Displacement of [125I]RTI-55 binding at dopamine transport sites in membranes from rat striatum; design: species or system Sprague-Dawley rat
# T1 construct: tissue Pel-Freez, Rogers, Ark; host or cells: rat striatum membranes
# Procedure: (§1) Binding of at biogenic amine transporters was determined using striatum and frontal cortex dissected from frozen Sprague-Dawley rat brains (Pel-Freez, Rogers, Ark.). […] Affinities of analogs at 5-HT transport sites were determined by displacement of [^3H]paroxetine binding in membranes from rat frontal cortex, using 50 mg (original wet weight) of membranes and 0.4 nM [^3H]paroxetine. Non-specific binding was determined in the presence of 10 μM fluoxetine. Binding of analogs at norepinephrine transport sites was determined by displacement of [^3H]nisoxetine binding in membranes from rat forebrain, using 0.7 nM [^3H]nisoxetine. Non-specific binding was determined in the presence of 1 μM desipramine.
# (§2) Potencies were calculated from displacement curves using 7-10 concentrations of unlabeled analogs, as analyzed by non-linear curve fitting. […] For [^3H]paroxetine and [^3H]nisoxetine binding assays, Ki values were calculated using the Cheng-Prusoff equation.^1 All data are mean values±S.E.M. of at least three separate experiments, each of which was conducted in triplicate.
# [2] = target: T2, 5-HT transport sites (SERT) (Rattus norvegicus, UniProt P31652); assay: Displacement of [3H]paroxetine binding at 5-HT transport sites in membranes from rat frontal cortex; design: species or system Sprague-Dawley rat
# T2 construct: tissue Pel-Freez, Rogers, Ark; host or cells: rat frontal cortex membranes
# Procedure: as §1, §2
# T2 sequence (P31652 whole entry): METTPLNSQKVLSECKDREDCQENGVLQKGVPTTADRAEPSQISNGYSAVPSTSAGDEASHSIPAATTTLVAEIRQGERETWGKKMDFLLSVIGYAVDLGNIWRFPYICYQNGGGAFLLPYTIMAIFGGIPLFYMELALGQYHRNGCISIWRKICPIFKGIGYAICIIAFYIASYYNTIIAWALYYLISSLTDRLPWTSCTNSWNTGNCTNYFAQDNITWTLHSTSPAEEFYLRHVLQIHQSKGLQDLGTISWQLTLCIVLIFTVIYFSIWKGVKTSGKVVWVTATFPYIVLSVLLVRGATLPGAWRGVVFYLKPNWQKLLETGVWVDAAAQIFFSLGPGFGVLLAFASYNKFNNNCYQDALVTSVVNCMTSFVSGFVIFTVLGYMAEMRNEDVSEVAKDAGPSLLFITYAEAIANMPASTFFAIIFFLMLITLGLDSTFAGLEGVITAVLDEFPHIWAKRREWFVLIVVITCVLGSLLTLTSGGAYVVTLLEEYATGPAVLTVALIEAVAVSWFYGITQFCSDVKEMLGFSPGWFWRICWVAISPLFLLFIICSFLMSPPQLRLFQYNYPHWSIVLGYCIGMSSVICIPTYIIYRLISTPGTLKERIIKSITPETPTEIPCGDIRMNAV
# T1 sequence (P23977 whole entry): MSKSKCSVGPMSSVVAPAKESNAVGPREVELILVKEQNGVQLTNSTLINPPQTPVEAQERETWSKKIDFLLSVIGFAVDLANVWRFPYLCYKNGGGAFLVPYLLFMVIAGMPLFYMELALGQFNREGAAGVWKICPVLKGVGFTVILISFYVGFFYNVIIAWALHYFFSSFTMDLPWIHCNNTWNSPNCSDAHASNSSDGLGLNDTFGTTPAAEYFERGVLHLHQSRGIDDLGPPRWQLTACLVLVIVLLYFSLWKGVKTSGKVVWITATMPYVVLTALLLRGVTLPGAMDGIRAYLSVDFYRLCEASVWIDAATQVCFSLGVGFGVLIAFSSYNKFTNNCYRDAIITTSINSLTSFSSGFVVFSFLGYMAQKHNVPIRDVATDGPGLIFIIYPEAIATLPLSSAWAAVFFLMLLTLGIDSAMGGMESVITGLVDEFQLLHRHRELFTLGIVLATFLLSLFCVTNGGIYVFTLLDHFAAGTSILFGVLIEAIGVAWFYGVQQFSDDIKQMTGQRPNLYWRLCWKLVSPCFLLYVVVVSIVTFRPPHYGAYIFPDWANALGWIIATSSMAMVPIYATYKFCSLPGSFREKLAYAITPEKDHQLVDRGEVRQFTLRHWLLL
Compound,IC50 [1] [nM],Ki [2] [nM],"IC50 ([1]; rat striatum membranes, 10 pM [125I]RTI-55, mean of at least three experiments, read-out: IC50 DA) [nM]","Ki ([2]; rat frontal cortex membranes, 0.4 nM [3H]paroxetine, Ki by Cheng-Prusoff, mean of at least three experiments, read-out: Ki SERT) [nM]"
CCC(O)C1C(c2ccc(C)cc2)CC2CCC1N2C (stereo not drawn) [Compound 41a],3.69,161,,
CCC(O)C1C(c2ccc3ccccc3c2)CC2CCC1N2C (stereo not drawn) [Compound 41b],6.22,588,,
CCC(OC(C)=O)C1C(c2ccc(C)cc2)CC2CCC1N2C (stereo not drawn) [Compound 42a],87.9,> 10000,,
CCC(OC(C)=O)C1C(c2ccc3ccccc3c2)CC2CCC1N2C (stereo not drawn) [Compound 42b],1.72,1.06,,
CCCCCCCCCCCC(=O)OC(CC)C1C(c2ccc(C)cc2)CC2CCC1N2C (stereo not drawn) [Compound 43a],,,0.891,1.91
CCCCCCCCCCCC(=O)OC(CC)C1C(c2ccc3ccccc3c2)CC2CCC1N2C (stereo not drawn) [Compound 43b],109,90.8,,
